# Results taken from patent US9163256B2, “Mutant receptors and their use in a nuclear receptor-based inducible gene expression system” (priority 2004, dated 2015).
# Key:
# Assay in all cases: cell-based
# CfEcR-DEF mutant A110E = CfEcR-DEF mutant A110E (Choristoneura fumiferana, UniProt O77255, A393E); settings: for Emax: NIH3T3, 40 h, read-out: Rel Max FI
# In short: (§1)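 Mutant CfEcR-DEF receptor and GAL4-driven luciferase reporter constructs transfected into mouse NIH3T3 cells with DMSO or ligand added; maintained 48 h at 37° C in 5% FBS, harvested 40 h after ligand addition. Dual-luciferase read-out; fold induction = RLU with ligand / RLU with DMSO.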
# [1] = molecular target: CfEcR-DEF mutant V128F/A110P (Choristoneura fumiferana, UniProt O77255, A393P/V411F)
# In short: as §1
# CfEcR-DEF mutant T52E = CfEcR-DEF mutant T52E (Choristoneura fumiferana, UniProt O77255, T335E); settings: for Emax: NIH3T3, 40 h, read-out: Rel Max FI
# In short: as §1
# [2] = molecular target: CfEcR-DEF mutant V107I/Y127E/A110P (Choristoneura fumiferana, UniProt O77255, A393P/V390I/Y410E); settings: for Emax: NIH3T3, 40 h, read-out: Rel Max FI
# In short: as §1
# [3] = molecular target: CfEcR-DEF mutant N119F/V96T (Choristoneura fumiferana, UniProt O77255, N402F/V379T); settings: for Emax: NIH3T3, 40 h, read-out: Rel Max FI
# In short: as §1
# CfEcR-DEF mutant M54W = CfEcR-DEF mutant M54W (Choristoneura fumiferana, UniProt O77255, M337W); settings: for Emax: NIH3T3, 40 h, read-out: Rel Max FI
# In short: as §1
# CfEcR-DEF mutant Y120W = CfEcR-DEF mutant Y120W (Choristoneura fumiferana, UniProt O77255, Y403W); settings: for Emax: NIH3T3, 40 h, read-out: Rel Max FI
# In short: as §1
# CfEcR-DEF mutant M92L = CfEcR-DEF mutant M92L (Choristoneura fumiferana, UniProt O77255, M375L); settings: for Emax: NIH3T3, 40 h, read-out: Rel Max FI
# In short: as §1
# CfEcR-DEF mutant M92E = CfEcR-DEF mutant M92E (Choristoneura fumiferana, UniProt O77255, M375E); settings: for Emax: NIH3T3, 40 h, read-out: Rel Max FI
# In short: as §1
# CfEcR-DEF mutant W238Y = CfEcR-DEF mutant W238Y (Choristoneura fumiferana, UniProt O77255, W521Y); settings: for Emax: NIH3T3, 40 h, read-out: Rel Max FI
# In short: as §1
# CfEcR-DEF mutant V96W = CfEcR-DEF mutant V96W (Choristoneura fumiferana, UniProt O77255, V379W); settings: for Emax: NIH3T3, 40 h, read-out: Rel Max FI
# In short: as §1
# CfEcR-DEF mutant R95M = CfEcR-DEF mutant R95M (Choristoneura fumiferana, UniProt O77255, R378M); settings: for Emax: NIH3T3, 40 h, read-out: Rel Max FI
# In short: as §1
# CfEcR-DEF mutant M125E = CfEcR-DEF mutant M125E (Choristoneura fumiferana, UniProt O77255, M408E); settings: for Emax: NIH3T3, 40 h, read-out: Rel Max FI
# In short: as §1
# CfEcR-DEF mutant L234M = CfEcR-DEF mutant L234M (Choristoneura fumiferana, UniProt O77255, L517M); settings: for Emax: NIH3T3, 40 h, read-out: Rel Max FI
# In short: as §1
# CfEcR-DEF mutant F48L = CfEcR-DEF mutant F48L (Choristoneura fumiferana, UniProt O77255, F331L); settings: for Emax: NIH3T3, 40 h, read-out: Rel Max FI
# In short: as §1
# CfEcR-DEF mutant I51L = CfEcR-DEF mutant I51L (Choristoneura fumiferana, UniProt O77255, I334L); settings: for Emax: NIH3T3, 40 h, read-out: Rel Max FI
# In short: as §1
# CfEcR-DEF mutant M125C = CfEcR-DEF mutant M125C (Choristoneura fumiferana, UniProt O77255, M408C); settings: for EC50: EC50, mutant M125C; for Emax: NIH3T3, 40 h, read-out: Rel Max FI
# In short: as §1
# CfEcR-DEF mutant M125L = CfEcR-DEF mutant M125L (Choristoneura fumiferana, UniProt O77255, M408L); settings: for Emax: NIH3T3, 40 h, read-out: Rel Max FI
# In short: as §1
# CfEcR-DEF mutant W238P = CfEcR-DEF mutant W238P (Choristoneura fumiferana, UniProt O77255, W521P); settings: for Emax: NIH3T3, 40 h, read-out: Rel Max FI
# In short: as §1
# CfEcR-DEF mutant L132V = CfEcR-DEF mutant L132V (Choristoneura fumiferana, UniProt O77255, L415V); settings: for Emax: NIH3T3, 40 h, read-out: Rel Max FI
# In short: as §1
# CfEcR-DEF mutant R95H = CfEcR-DEF mutant R95H (Choristoneura fumiferana, UniProt O77255, R378H); settings: for Emax: NIH3T3, 40 h, read-out: Rel Max FI
# In short: as §1
# CfEcR-DEF mutant M54W, sequence (O77255 entry or part of it M337W): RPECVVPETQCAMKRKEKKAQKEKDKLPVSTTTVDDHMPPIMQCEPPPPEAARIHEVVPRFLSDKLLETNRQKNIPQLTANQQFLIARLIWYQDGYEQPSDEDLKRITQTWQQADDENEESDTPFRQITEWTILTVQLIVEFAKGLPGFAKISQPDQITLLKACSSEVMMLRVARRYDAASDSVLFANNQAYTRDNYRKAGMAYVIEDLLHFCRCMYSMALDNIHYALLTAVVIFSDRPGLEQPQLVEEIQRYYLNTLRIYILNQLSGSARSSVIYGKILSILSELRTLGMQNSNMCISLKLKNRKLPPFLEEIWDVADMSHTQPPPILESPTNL
# CfEcR-DEF mutant M54W, sequence (P28702 299-449, further chain): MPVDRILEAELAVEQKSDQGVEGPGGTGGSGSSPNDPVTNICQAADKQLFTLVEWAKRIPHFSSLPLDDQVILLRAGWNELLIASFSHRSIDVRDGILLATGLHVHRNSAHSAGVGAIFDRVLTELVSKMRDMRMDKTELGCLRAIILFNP
# CfEcR-DEF mutant T52E, sequence (O77255 entry or part of it T335E): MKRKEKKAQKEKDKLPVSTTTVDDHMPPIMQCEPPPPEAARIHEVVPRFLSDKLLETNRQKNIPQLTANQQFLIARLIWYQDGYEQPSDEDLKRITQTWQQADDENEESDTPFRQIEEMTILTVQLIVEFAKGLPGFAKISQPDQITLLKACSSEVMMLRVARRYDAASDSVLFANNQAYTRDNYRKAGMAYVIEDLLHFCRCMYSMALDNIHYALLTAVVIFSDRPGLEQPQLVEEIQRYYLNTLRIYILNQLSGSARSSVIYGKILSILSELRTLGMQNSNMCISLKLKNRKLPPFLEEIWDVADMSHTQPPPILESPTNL
# CfEcR-DEF mutant T52E, sequence (P28702 299-449, further chain): as the sequence (P28702 299-449, further chain) above
# CfEcR-DEF mutant M125C, sequence (O77255 entry or part of it M408C): as the sequence (O77255 entry or part of it M337W) above, with W131M, M202C counted along it
# CfEcR-DEF mutant M125C, sequence (P28702 299-449, further chain): as the sequence (P28702 299-449, further chain) above
# CfEcR-DEF mutant Y120W, sequence (O77255 entry or part of it Y403W): as the sequence (O77255 entry or part of it T335E) above, with E117T, Y185W counted along it
# CfEcR-DEF mutant Y120W, sequence (P28702 299-449, further chain): as the sequence (P28702 299-449, further chain) above
# CfEcR-DEF mutant L132V, sequence (O77255 entry or part of it L415V): as the sequence (O77255 entry or part of it M337W) above, with W131M, L209V counted along it
# CfEcR-DEF mutant L132V, sequence (P28702 298-449, further chain): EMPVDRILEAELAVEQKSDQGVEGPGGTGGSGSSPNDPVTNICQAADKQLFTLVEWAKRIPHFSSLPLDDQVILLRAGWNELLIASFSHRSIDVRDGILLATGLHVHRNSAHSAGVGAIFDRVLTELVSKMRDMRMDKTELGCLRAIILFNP
# CfEcR-DEF mutant A110E, sequence (P28702 299-449, stated change not applied): as the sequence (P28702 299-449, further chain) above
# CfEcR-DEF mutant A110E, sequence (O77255 entry or part of it A393E): as the sequence (O77255 entry or part of it M337W) above, with W131M, A187E counted along it
# CfEcR-DEF mutant R95M, sequence (P28702 299-449): as the sequence (P28702 299-449, further chain) above
# CfEcR-DEF mutant R95M, sequence (O77255 entry or part of it R378M): as the sequence (O77255 entry or part of it T335E) above, with E117T, R160M counted along it
# CfEcR-DEF mutant W238Y, sequence (P28702 299-449): as the sequence (P28702 299-449, further chain) above
# CfEcR-DEF mutant W238Y, sequence (O77255 entry or part of it W521Y): as the sequence (O77255 entry or part of it T335E) above, with E117T, W303Y counted along it
# CfEcR-DEF mutant F48L, sequence (P28702 299-449): as the sequence (P28702 299-449, further chain) above
# CfEcR-DEF mutant F48L, sequence (O77255 entry or part of it F331L): as the sequence (O77255 entry or part of it T335E) above, with F113L, E117T counted along it
compound,measurement,setting,value
"CCc1cccc(C(=O)NN(C(=O)c2cc(C)cc(C)c2)C(C)(C)C)c1C [RG-101691, 3,5-Dimethyl-benzoic acid N-tert-butyl-N′-(3-ethyl-2-methyl-benzoyl)-hydrazide]",EC50,CfEcR-DEF mutant A110E,0.85 µM
same,Emax,CfEcR-DEF mutant A110E,103%
same,EC50,[1],~5 µM
same,Emax,"[1]; NIH3T3, 40 h, read-out: Rel Max FI",8%
same,Rel Max FI,"[1]; mutant V128F/A110P, 2400 min",0.08
same,EC50,CfEcR-DEF mutant T52E,~7 µM
same,Emax,CfEcR-DEF mutant T52E,57%
same,EC50,[2],0.34 µM
same,Emax,[2],96%
same,EC50,[3],3.63 µM
same,Emax,[3],13%
same,EC50,CfEcR-DEF mutant M54W,1.63 µM
same,Emax,CfEcR-DEF mutant M54W,75%
same,EC50,CfEcR-DEF mutant Y120W,9.76 µM
same,Emax,CfEcR-DEF mutant Y120W,89%
same,EC50,CfEcR-DEF mutant M92L,9.9 µM
same,Emax,CfEcR-DEF mutant M92L,41%
same,EC50,CfEcR-DEF mutant M92E,~20 µM
same,Emax,CfEcR-DEF mutant M92E,8%
same,EC50,CfEcR-DEF mutant W238Y,> 33 µM
same,Emax,CfEcR-DEF mutant W238Y,30%
same,EC50,CfEcR-DEF mutant V96W,3.61 µM
same,Emax,CfEcR-DEF mutant V96W,75%
same,EC50,CfEcR-DEF mutant R95M,3.3 µM
same,Emax,CfEcR-DEF mutant R95M,57%
same,EC50,CfEcR-DEF mutant M125E,0.98 µM
same,Emax,CfEcR-DEF mutant M125E,53%
same,EC50,CfEcR-DEF mutant L234M,1.79 µM
same,Emax,CfEcR-DEF mutant L234M,77%
same,EC50,CfEcR-DEF mutant F48L,0.3 µM
same,Emax,CfEcR-DEF mutant F48L,81%
same,EC50,CfEcR-DEF mutant I51L,2.28 µM
same,Emax,CfEcR-DEF mutant I51L,88%
same,EC50,CfEcR-DEF mutant M125C,≥ 33 µM
same,Emax,CfEcR-DEF mutant M125C,62%
same,EC50,CfEcR-DEF mutant M125L,> 33 µM
same,Emax,CfEcR-DEF mutant M125L,0%
same,EC50,CfEcR-DEF mutant W238P,0.65 µM
same,Emax,CfEcR-DEF mutant W238P,91%
same,EC50,CfEcR-DEF mutant L132V,0.66 µM
same,Emax,CfEcR-DEF mutant L132V,77%
same,EC50,CfEcR-DEF mutant R95H,3.9 µM
same,Emax,CfEcR-DEF mutant R95H,96%
"Cc1cc(C)cc(C(=O)N(NC(=O)c2cccc(C(C)C)c2C)C(C)(C)C)c1 [RG-102362, 3,5-Dimethyl-benzoic acid N-tert-butyl-N′-(3-isopropyl-2-methyl-benzoyl)-hydrazide]",EC50,CfEcR-DEF mutant A110E,1.02 µM
same,Emax,CfEcR-DEF mutant A110E,78%
same,EC50,CfEcR-DEF mutant T52E,7.16 µM
same,Emax,CfEcR-DEF mutant T52E,34%
same,EC50,[2],0.1 µM
same,Emax,[2],63%
same,EC50,[3],~10 µM
same,Emax,[3],19%
same,EC50,CfEcR-DEF mutant M54W,1.24 µM
same,Emax,CfEcR-DEF mutant M54W,44%
same,EC50,CfEcR-DEF mutant Y120W,4.96 µM
same,Emax,CfEcR-DEF mutant Y120W,67%
same,EC50,CfEcR-DEF mutant M92L,~20 µM
same,Emax,CfEcR-DEF mutant M92L,5%
same,EC50,CfEcR-DEF mutant M92E,> 33 µM
same,Emax,CfEcR-DEF mutant M92E,4%
same,EC50,CfEcR-DEF mutant W238Y,> 33 µM
same,Emax,CfEcR-DEF mutant W238Y,6%
same,EC50,CfEcR-DEF mutant V96W,3.26 µM
same,Emax,CfEcR-DEF mutant V96W,38%
same,EC50,CfEcR-DEF mutant R95M,4.28 µM
same,Emax,CfEcR-DEF mutant R95M,27%
same,EC50,CfEcR-DEF mutant M125E,0.83 µM
same,Emax,CfEcR-DEF mutant M125E,40%
same,EC50,CfEcR-DEF mutant L234M,2.04 µM
same,Emax,CfEcR-DEF mutant L234M,43%
same,EC50,CfEcR-DEF mutant F48L,0.56 µM
same,Emax,CfEcR-DEF mutant F48L,53%
same,EC50,CfEcR-DEF mutant I51L,3.35 µM
same,Emax,CfEcR-DEF mutant I51L,53%
same,EC50,CfEcR-DEF mutant M125C,≥ 33 µM
same,Emax,CfEcR-DEF mutant M125C,15%
same,EC50,CfEcR-DEF mutant M125L,> 33 µM
same,Emax,CfEcR-DEF mutant M125L,1%
same,EC50,CfEcR-DEF mutant W238P,0.29 µM
same,Emax,CfEcR-DEF mutant W238P,40%
same,EC50,CfEcR-DEF mutant L132V,0.29 µM
same,Emax,CfEcR-DEF mutant L132V,74%
same,EC50,CfEcR-DEF mutant R95H,3.49 µM
same,Emax,CfEcR-DEF mutant R95H,62%
